Laboratory results from publication PMC8188212, “Multi‐Arm PEG/Peptidomimetic Conjugate Inhibitors of DR6/APP Interaction Block Hematogenous Tumor Cell Extravasation” (Advanced Science, 2021).
Square brackets hold non-standard residues; d marks the D form. Ends that are not written are not given here. Peptide text beside a SMILES is read from it.

molecular target: T1, DR6 protein (Homo sapiens, UniProt O75509); experiment: KD of DR6-targeting peptides for binding to DR6 protein by MST; settings: Tables S1 and S2, average of three independent experiments in triplicate, NB = No binding, read-out: KD ± SEM
T1 construct: purchased Sino Biology, Inc. (Shanghai, China)
T1 sequence (O75509 42-655): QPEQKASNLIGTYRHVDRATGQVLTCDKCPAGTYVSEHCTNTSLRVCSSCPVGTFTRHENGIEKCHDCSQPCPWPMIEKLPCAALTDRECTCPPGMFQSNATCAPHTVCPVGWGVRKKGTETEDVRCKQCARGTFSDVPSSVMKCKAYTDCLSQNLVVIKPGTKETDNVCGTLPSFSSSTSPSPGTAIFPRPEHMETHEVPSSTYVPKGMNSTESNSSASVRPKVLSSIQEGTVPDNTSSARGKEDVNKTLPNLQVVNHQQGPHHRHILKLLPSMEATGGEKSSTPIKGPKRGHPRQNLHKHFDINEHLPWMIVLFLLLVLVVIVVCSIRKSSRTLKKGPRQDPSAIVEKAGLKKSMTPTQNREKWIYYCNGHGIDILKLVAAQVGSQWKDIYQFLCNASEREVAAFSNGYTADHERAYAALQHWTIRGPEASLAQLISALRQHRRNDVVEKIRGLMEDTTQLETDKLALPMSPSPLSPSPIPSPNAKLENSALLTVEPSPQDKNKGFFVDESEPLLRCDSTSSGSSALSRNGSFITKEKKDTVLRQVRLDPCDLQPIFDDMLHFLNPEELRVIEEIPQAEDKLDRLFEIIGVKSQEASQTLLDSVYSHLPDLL
Method: For labeling DR6 protein with Red‐tris‐NTA second‐generation dye, equal volume of DR6 protein (200 × 10^–9 M) and dye (100 × 10^–9 M) were mixed. The solution was incubated for 30 min at room temperature and centrifuged for 10 min at 4 ℃ and 15 000 × g. The DR6 protein was labeled and ready for the binding assay. Prepare 25 µL of the DR6‐targeting peptides at 20 × 10^–6 M and add 10 µL of the PBS‐T into the PCR tubes 2–12. Transfer 20 µL DR6‐targeting peptides into the PCR tube 1 and then transfer 10 µL of the DR6‐targeting peptides from tube 1 to tube 2 with a pipette and mix by pipetting up and down multiple times. Transfer 10 µL to tube 3 and mix. Repeat the procedure for tube 4–12. Add 10 µL of labeled protein to each tube (1–12) and mix by pipetting. The final DR6 protein concentration was 50× 10^−9 M. Load the capillaries and measure the samples by NanoTemper Monolith NT.015.^[ ^51 , ^52 ^]

Compound	Kd
HSTAPQL [AHP-08]	> 10 µM
KLGPVCP [AHP-06]	> 10 µM
TIPKYER [AHP-15]	> 10 µM
MPPFRHD [AHP-19]	> 10 µM
KFLQVTN [AHP-16]	> 10 µM
YSLHASP [AHP-07]	> 10 µM
AGHFSLW [AHP-21]	> 10 µM
LMTTKSD [AHP-22]	> 10 µM
FQFRLQS [AHP-02]	> 10 µM
LPRSPLA [AHP-20]	> 10 µM

Further lines, results first:

Kd	Compound
0.8627 ± 0.00659 µM	C[C@H](O)[C@@H](NC(=O)[C@@H](CC(=O)O)NC(=O)[C@H](NC(=O)[C@@H](CC(N)=O)NC(=O)[C@H](N)CCC(N)=O)[C@H](C)O)C(=O)N[C@H](Cc1c[nH]cn1)C(=O)N[C@H](CO)C(=O)O [AHP-DRI-13] (H-[dQ][dN][dT][dD][dT][dH][dS]-OH)
4.734 ± 0.0088 µM	CC(C)C[C@@H](NC(=O)[C@H]1CCCN1C(=O)[C@@H](C)NC(=O)[C@H]1CCCN1C(=O)[C@@H](CC(C)C)NC(=O)[C@H](N)Cc1ccc(O)cc1)C(=O)N1CCC[C@@H]1C(=O)O [AHP-D-03] (H-[dY][dL][dP][dA][dP][dL][dP]-OH)
> 10 µM	GFSHYFP [AHP-11]
> 10 µM	KLVPEPS [AHP-09]
0.457 ± 0.0116 µM	AFMYSLP [AHP-14]
1.219 ± 0.00702 µM	CC(C)C[C@@H](NC(=O)[C@H]1CCCN1C(=O)[C@@H](C)NC(=O)[C@H]1CCCN1C(=O)[C@@H](CC(C)C)NC(=O)[C@H]1CCCN1)C(=O)N[C@H](Cc1ccc(O)cc1)C(=O)O [AHP-DRI-03] (H-[dP][dL][dP][dA][dP][dL][dY]-OH)
55.1 ± 27.6 µM	CC[C@@H](C)[C@@H](NC(=O)[C@H](N)[C@H](C)O)C(=O)N[C@H](CC(=O)O)C(=O)N[C@H](C)C(=O)N[C@@H](C(=O)N[C@@H](C(=O)N1CCC[C@@H]1C(=O)O)[C@H](C)O)[C@H](C)O [AHP-D-12] (H-[dT][dI][dD][dA][dT][dT][dP]-OH)
